Here are results for seven molecules from ChEMBL document CHEMBL1148221, “Constituents of Senecio chionophilus with potential antitubercular activity” (2004).

Values after ≈ are worked out from the molar mass of the structure shown.

As usually defined, the MIC is the lowest concentration found to suppress growth.

In the experiment the test system is Mycobacterium tuberculosis. Kind of experiment: Antitubercular activity against Mycobacterium tuberculosis H37Rv ATCC 27294 by microplate Alamar blue assay. It counts as functional. Background: Alamar Blue is a resazurin reagent that responds to reducing activity.
Take `CC1(C)CC[C@]2(C(=O)O)CC[C@]3(C)C(=CC[C@@H]4[C@@]5(C)CC[C@H](O)C(C)(C)[C@@H]5CC[C@]43C)[C@@H]2C1` [OLEANOLIC_ACID]: inhibition of growth (MIC) required 64 µg/mL (≈ 140 µM). For `C[C@H]1[C@H](C)CC[C@]2(C(=O)O)CC[C@]3(C)C(=CC[C@@H]4[C@@]5(C)CC[C@H](O)C(C)(C)[C@@H]5CC[C@]43C)[C@H]12` [URSOLIC ACID] the value was 32 µg/mL (≈ 70.1 µM). The result for `CC(=O)c1ccc(O)cc1` [4-HYDROXYACETOPHENONE] reads 121 µg/mL (≈ 889 µM).

`C=C(C)[C@@H]1CC[C@]2(C(=O)O)CC[C@]3(C)[C@H](CC[C@@H]4[C@@]5(C)CC[C@H](O)C(C)(C)[C@@H]5CC[C@]43C)[C@@H]12` [BETULINIC ACID] gave an MIC of 32 µg/mL (≈ 70.1 µM). `CO[C@H]1/C=C/O[C@@]2(C)Oc3c(C)c(O)c4c(O)c(c(/C=N/N5CCN(C)CC5)c(O)c4c3C2=O)NC(=O)/C(C)=C\C=C\[C@H](C)[C@H](O)[C@@H](C)[C@@H](O)[C@@H](C)[C@H](OC(C)=O)[C@@H]1C` [RIFAMPIN]: the MIC is 0.03 µg/mL (≈ 0.0365 µM). For `C/C=C(/C)C(=O)O[C@@H]1c2c(C)coc2C(=O)[C@@H]2[C@@H](O)CC[C@H](C)[C@@]12C` the value was 114 µg/mL (≈ 329 µM); for `CCC(C)C(=O)O[C@@H]1c2c(C)coc2C(=O)[C@@H]2[C@@H](O)CC[C@H](C)[C@@]12C` (some centres not stated), 119 µg/mL (≈ 342 µM).
